# Data taken from ChEMBL document CHEMBL5523751, “Discovery of Novel Diaryl-Substituted Fused Heterocycles Targeting Katanin and Tubulin with Potent Antitumor and Antimultidrug Resistance Efficacy” (J Med Chem, 2024).
# Activity calls are given as the source filed them. No cut-off for these calls is given here.
# Legend:
# [1] = target: Katanin p60 ATPase-containing subunit A1 (Homo sapiens, UniProt O75449); assay: Induction of thermal stabilization in N-terminal human Katanin p60 (8 to 229 residues) expressed in Escherichia coli Rosetta (DE3) at 10 uM by thermal shift assay
# Tubulin (Homo sapiens) [2] = target: T1, Tubulin (Homo sapiens) (UniProt P68371+Q9H4B7+P0DPH7+P68366+Q13509+Q71U36+P04350+Q3ZCM7+P07437+P68363+Q9BQE3+Q6PEY2+Q13885+Q9BVA1+Q9BUF5); assay: Inhibition of microtubule assembly in human MCF7 cells assessed as appearance of disorganized fibrous microtubule structure at 1 to 10 nM incubated for 24 hrs by immunofluorescence assay; format: cell-based; settings: dose 1-10 nM
# Tubulin (Homo sapiens) [3] = target: T1, Tubulin (Homo sapiens); assay: Inhibition of microtubule assembly in human MCF7 cells assessed as decrease in density at 1 to 10 nM incubated for 24 hrs by immunofluorescence assay; format: cell-based; settings: dose 1-10 nM
# MCF7 [4] = assay: Upregulation of cyclin-B1 expression level in human MCF7 cells at 1 to 10 nM by Western blot analysis; format: functional, cell-based; settings: dose 1-10 nM
# MCF7 [5] = assay: Upregulation of CDK1 expression level in human MCF7 cells at 1 to 10 nM by Western blot analysis; format: functional, cell-based; settings: dose 1-10 nM
# MCF7 [6] = assay: Upregulation of histone H3 phosphorylation level in human MCF7 cells at 1 to 10 nM by Western blot analysis; format: functional, cell-based; settings: dose 1-10 nM
# MCF7 [7] = assay: Induction of apoptosis in human MCF7 cells assessed as early apoptotic cells at 20 nM measured after 48 hrs by annexin-FITC and propidium iodide staining based flow cytometry analysis (reference value: 1.20%); format: functional
# MCF7 [8] = assay: Induction of apoptosis in human MCF7 cells measured after 48 hrs by annexin-FITC and propidium iodide staining based flow cytometry analysis; format: functional, cell-based; settings: dose 10-40 nM
# HUVEC = assay: Anti-angiogenesis activity in human HUVEC cells assessed as disruption of capillary tube formation at 30 nM incubated for 6 hrs by inverted microscopic analysis; format: functional, cell-based
# MDA-MB-468 = assay: Antiproliferative activity against human MDA-MB-468 cells assessed as inhibition of cell growth measured after 48 hrs by MTT assay; format: functional, cell-based; settings: MDA-MB-468, 48 h
# A2780 = assay: Antiproliferative activity against human A2780 cells assessed as inhibition of cell growth measured after 48 hrs by MTT assay; format: functional, cell-based; settings: A2780, 48 h
# DU-145 = assay: Antiproliferative activity against human DU-145 assessed as inhibition of cell growth measured after 48 hrs by MTT assay; format: functional, cell-based; settings: DU-145, 48 h
# PANC-1 = assay: Antiproliferative activity against human PANC-1 assessed as inhibition of cell growth measured after 48 hrs by MTT assay; format: functional, cell-based; settings: PANC-1, 48 h
# A549 = assay: Antiproliferative activity against human A549 assessed as inhibition of cell growth measured after 48 hrs by MTT assay; format: functional, cell-based; settings: A549, 48 h
# [9] = Antiproliferative activity against cisplatin resistant human A2780/CDDP cells assessed as inhibition of cell growth measured after 48 hrs by MTT assay; format: functional, cell-based
# [10] = Resistance index, ratio of IC50 for antiproliferative activity against cisplatin resistant human A2780/CDDP cells to IC50 for antiproliferative activity against human A2780 cells; format: functional
# [11] = Antiproliferative activity against human CDDP-resistant A549 cell assessed as inhibition of cell growth measured after 48 hrs by MTT assay; format: functional, cell-based
# [12] = Resistance index, ratio of IC50 for antiproliferative activity against human CDDP-resistant A549 cell to IC50 for antiproliferative activity against human A549 cells; format: functional
# MDA-MB-231 [13] = assay: Downregulation of vimentin expression in human MDA-MB-231 cells at 5 to 40 nM by Western blot analysis; format: functional, cell-based; settings: dose 5-40 nM
# MDA-MB-231 [14] = assay: Downregulation of MMP-9 expression in human MDA-MB-231 cells at 5 to 40 nM by Western blot analysis; format: functional, cell-based; settings: dose 5-40 nM
# [15] = Acute toxicity in ICR mouse assessed as animal death at 100 mg/kg, ip measured after 3 to 14 days; format: organism-based; settings: in vivo, time 3-14 day
# [16] = Acute toxicity in ICR mouse assessed as animal death at 150 mg/kg, ip measured after 3 to 14 days; format: organism-based; settings: in vivo, time 3-14 day
# [17] = Acute toxicity in ICR mouse assessed as animal death at 200 mg/kg, ip measured after 3 to 14 days; format: organism-based; settings: in vivo, time 3-14 day
# [18] = Acute toxicity in ICR mouse assessed as survival rate at 50 mg/kg, ip measured after 14 days relative to control; format: organism-based; settings: in vivo, time 14 day
# [19] = Acute toxicity in ICR mouse assessed as survival rate at 100 mg/kg, ip measured after 14 days relative to control; format: organism-based; settings: in vivo, time 14 day
# [20] = Acute toxicity in ICR mouse assessed as survival rate at 150 mg/kg, ip measured after 14 days relative to control; format: organism-based; settings: in vivo, time 14 day
# [21] = Acute toxicity in ICR mouse assessed as survival rate at 200 mg/kg, ip measured after 14 days relative to control; format: organism-based; settings: in vivo, time 14 day
# [22] = Toxicity in Balb/C nude mouse assessed as drug tolerance at 15 mg/kg, ip measured upto 2 weeks; format: organism-based; settings: in vivo, 336 h
# [23] = Toxicity in Balb/C nude mouse assessed as effect on body weight loss at 15 mg/kg, ip measured upto 2 weeks; format: organism-based; settings: in vivo, 336 h
# MDA-MB-231 [24] = assay: Antitumor activity against human MDA-MB-231 cells xenografted in BALB/c nude mouse model assessed as inhibition of tumor growth weight administered as IP dose measured after 14 days; format: functional; settings: dose 7.5-15 mg/kg, time 14.0 day
# MDA-MB-231 [25] = assay: Antitumor activity against human MDA-MB-231 cells xenografted in BALB/c nude mouse model assessed as tumor weight reduction at 7.5 mg/kg, ip measured after 14 days relative to control; format: functional; parameters: scale not given: the % may be the effect or the level left; settings: time 14 day
# MDA-MB-231 [26] = assay: Antitumor activity against human MDA-MB-231 cells xenografted in BALB/c nude mouse model assessed as tumor weight reduction at 15 mg/kg, ip measured after 14 days relative to control; format: functional; parameters: scale not given: the % may be the effect or the level left; settings: time 14 day
# [27] = Toxicity in Balb/C nude mouse assessed as abnormalities in lung at 7.5 to 15 mg/kg, ip measured after 14 days by H and E staining based analysis; format: organism-based; settings: in vivo, 336 h, dose 7.5-15 mg/kg, time 14 day
# [28] = Toxicity in Balb/C nude mouse xenografted with A549/Taxol assessed as effect on spleen at 15 mg/kg, ip measured after 14 days by H and E staining based analysis; format: organism-based, A549/TR; settings: in vivo, 336 h, time 14 day
# [29] = Toxicity in Balb/C nude mouse xenografted with A549/Taxol assessed as changes in blood routine parameters at 15 mg/kg, ip measured after 14 days by biochemical assay; format: organism-based, A549/TR; settings: in vivo, 336 h, time 14 day
# [30] = Half life in mouse at 3 mg/kg, iv measured upto 24 hrs by LC-MS/MS analysis; format: ADME, organism-based; settings: in vivo
# [31] = AUC (0 to t) in mouse at 3 mg/kg, iv measured upto 24 hrs by LC-MS/MS analysis; format: ADME, organism-based; settings: in vivo
# [32] = AUC (0 to infinity) in mouse at 3 mg/kg, iv measured upto 24 hrs by LC-MS/MS analysis; format: ADME, organism-based; settings: in vivo
# [33] = Cmax in mouse at 15 mg/kg, po measured upto 24 hrs by LC-MS/MS analysis; format: ADME, organism-based; settings: in vivo
# Chain of Katanin p60 ATPase-containing subunit A1 (O75449 whole entry, the tested form may be a part): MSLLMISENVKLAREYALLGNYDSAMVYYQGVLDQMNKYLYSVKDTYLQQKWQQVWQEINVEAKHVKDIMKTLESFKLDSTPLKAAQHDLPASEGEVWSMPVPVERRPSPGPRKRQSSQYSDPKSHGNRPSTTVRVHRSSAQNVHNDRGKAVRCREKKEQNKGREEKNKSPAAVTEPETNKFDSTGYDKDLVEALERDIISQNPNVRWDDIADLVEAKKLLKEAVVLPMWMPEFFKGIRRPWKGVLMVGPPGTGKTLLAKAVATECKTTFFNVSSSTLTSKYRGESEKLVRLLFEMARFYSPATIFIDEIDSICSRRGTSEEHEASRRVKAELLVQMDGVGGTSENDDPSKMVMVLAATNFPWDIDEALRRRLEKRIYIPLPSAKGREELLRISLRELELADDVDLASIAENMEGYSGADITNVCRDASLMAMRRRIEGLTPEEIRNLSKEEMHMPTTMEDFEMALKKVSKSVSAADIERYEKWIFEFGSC
structure (smiles),measurement,setting,value
COc1cc(-n2cnc3ccc(-c4ccc(C)c(N)c4)nc32)cc(OC)c1OC,Activity,[1],Active
same,inhibition,Tubulin (Homo sapiens) [2],Active
same,inhibition,Tubulin (Homo sapiens) [3],Active
same,Activity,MCF7 [4],Active
same,Activity,MCF7 [5],Active
same,Activity,MCF7 [6],Active
same,Activity,MCF7 [7],31.28%
same,Activity,MCF7 [8],Dose-Dependent Effect
same,Activity,HUVEC,Active
same,IC50,MDA-MB-468,10 nM
same,IC50,A2780,3 nM
same,IC50,DU-145,4 nM
same,IC50,PANC-1,4 nM
same,IC50,A549,1 nM
same,IC50,[9],4.2 nM
same,Ratio IC50,[10],1.35
same,IC50,[11],2 nM
same,Ratio IC50,[12],1.81
same,Activity,MDA-MB-231 [13],Active
same,Activity,MDA-MB-231 [14],Active
same,Activity,[15],Non-Toxic
same,Activity,[16],Non-Toxic
same,Activity,[17],Non-Toxic
same,survival at 336 h,[18],100%
same,survival at 336 h,[19],80%
same,survival at 336 h,[20],50%
same,survival at 336 h,[21],40%
same,Activity,[22],Non-Toxic
same,Activity,[23],Non-Toxic
same,Activity,MDA-MB-231 [24],Dose-Dependent Effect
same,Activity,MDA-MB-231 [25],63%
same,Activity,MDA-MB-231 [26],84%
same,Activity,[27],Non-Toxic
same,Activity,[28],Non-Toxic
same,Activity,[29],Toxic
same,half-life,[30],1.06 h
same,AUC(0-t) at 24 h,[31],666 ng·h/mL
same,AUC(0-inf),[32],668 ng·h/mL
same,Cmax,[33],1200 ng/mL
